Where two headings read alike, the source gives them in different places.
Biological target: GCN2 (Homo sapiens, UniProt Q9P2K8)
Assay: GCN2 enzymatic endpoint assay: phosphorylation of GFP-eIF2α measured by TR-FRET (Lanthascreen)
Assay type: biochemical
Method in brief: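 2 μM ATP, 80 nM GFP-eIF2α, RT, 90 min; EDTA stop. Tb-anti-phospho antibody TR-FRET read, 520/495 nm ratio.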

[1] = GCN2 biochemical IC50, 4 nM GCN2, 2 μM ATP, 80 nM GFP-eIF2α, 90 min RT, read-out: GCN2 activity
[2] = tested as described in Example 77, compound and/or hydrochloride, dihydrochloride or trifluoroacetic acid salt, read-out: IC 50 Activity

Chain of GCN2 (Q9P2K8 whole entry): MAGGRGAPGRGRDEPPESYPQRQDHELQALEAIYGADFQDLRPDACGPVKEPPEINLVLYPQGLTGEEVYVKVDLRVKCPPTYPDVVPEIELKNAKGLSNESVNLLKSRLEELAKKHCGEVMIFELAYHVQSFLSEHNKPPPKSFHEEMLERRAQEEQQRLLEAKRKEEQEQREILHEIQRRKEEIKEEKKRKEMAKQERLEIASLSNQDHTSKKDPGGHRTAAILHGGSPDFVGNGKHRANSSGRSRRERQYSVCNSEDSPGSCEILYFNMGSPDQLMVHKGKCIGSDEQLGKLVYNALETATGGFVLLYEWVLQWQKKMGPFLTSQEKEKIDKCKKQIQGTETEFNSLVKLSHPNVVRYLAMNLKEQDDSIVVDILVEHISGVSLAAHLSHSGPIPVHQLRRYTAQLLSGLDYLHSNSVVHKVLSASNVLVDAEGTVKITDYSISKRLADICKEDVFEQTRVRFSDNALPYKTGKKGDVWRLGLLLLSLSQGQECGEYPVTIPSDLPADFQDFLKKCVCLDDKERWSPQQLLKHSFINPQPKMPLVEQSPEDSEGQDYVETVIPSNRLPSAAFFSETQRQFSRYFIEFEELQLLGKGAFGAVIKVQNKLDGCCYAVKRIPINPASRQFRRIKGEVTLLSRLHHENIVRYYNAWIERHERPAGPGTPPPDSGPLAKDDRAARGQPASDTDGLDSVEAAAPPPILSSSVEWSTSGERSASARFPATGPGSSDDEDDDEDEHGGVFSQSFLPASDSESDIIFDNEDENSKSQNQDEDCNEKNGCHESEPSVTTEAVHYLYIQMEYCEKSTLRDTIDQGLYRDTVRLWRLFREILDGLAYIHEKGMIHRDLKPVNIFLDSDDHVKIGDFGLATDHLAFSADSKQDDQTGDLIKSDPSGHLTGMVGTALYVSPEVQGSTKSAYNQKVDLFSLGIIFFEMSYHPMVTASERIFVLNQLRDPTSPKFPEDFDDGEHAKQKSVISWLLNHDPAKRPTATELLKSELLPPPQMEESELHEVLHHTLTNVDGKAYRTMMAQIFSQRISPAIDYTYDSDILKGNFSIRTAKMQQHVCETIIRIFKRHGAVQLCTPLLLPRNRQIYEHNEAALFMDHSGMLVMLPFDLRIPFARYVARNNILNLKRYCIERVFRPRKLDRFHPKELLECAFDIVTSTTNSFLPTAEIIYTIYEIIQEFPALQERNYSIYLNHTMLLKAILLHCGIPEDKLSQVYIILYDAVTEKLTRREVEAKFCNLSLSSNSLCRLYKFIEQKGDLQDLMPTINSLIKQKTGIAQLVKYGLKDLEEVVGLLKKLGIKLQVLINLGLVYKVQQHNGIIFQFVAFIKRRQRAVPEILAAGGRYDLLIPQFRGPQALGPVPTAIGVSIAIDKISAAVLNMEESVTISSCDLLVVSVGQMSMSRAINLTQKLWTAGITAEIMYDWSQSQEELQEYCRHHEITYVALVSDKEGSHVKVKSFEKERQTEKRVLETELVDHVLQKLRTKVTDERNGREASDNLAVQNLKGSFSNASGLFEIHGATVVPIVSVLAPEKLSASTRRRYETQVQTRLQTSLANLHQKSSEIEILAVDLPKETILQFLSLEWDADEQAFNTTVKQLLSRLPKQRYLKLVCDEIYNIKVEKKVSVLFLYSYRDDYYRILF

Row | IC50 [1] | IC50 [2] | SMILES
1 | 0.025 to 0.2 µM |  | CNC(=O)[C@]1(C)CC[C@@H](Nc2ncc3c(Br)nn(-c4ccc(-c5nnc(C)s5)c(CCN(C)C)c4)c3n2)C1 [Example 63, (1R,3R)-3-((3-bromo-1-(3-(2-(dimethylamino)ethyl)-4-(5-methyl-1,3,4-thiadiazol-2-yl)phenyl)-1H-pyrazolo[3,4-d]pyrimidin-6-yl)amino)-N,1-dimethylcyclopentane-1-carboxamide; 2,2,2-trifluoroacetic acid]
2 |  | < 0.025 µM | CNC(=O)[C@]1(C)CC[C@@H](Nc2ncc3c(Br)nn(-c4ccc5nc(OC)ncc5c4)c3n2)C1 [(1R,3R)-3-[[3-bromo-1-(2-methoxy-quinazolin-6-yl)pyrazolo[3,4-d]pyrimidin-6-yl]amino]-N,1-dimethyl-cyclopentane-carboxamide; 2,2,2-trifluoroacetic acid]
3 | 0.025 to 0.2 µM |  | CNS(=O)(=O)[C@@H]1CC[C@@H](Nc2ncc3c(Br)nn(-c4ccc5ncccc5c4)c3n2)C1 (single isomer, unassigned) [Example 16]
4 |  | 0.2 to 0.5 µM | CS(=O)(=O)CCNC(=O)C12CCC(Nc3ncc4c(Br)nn(-c5ccc6ncccc6c5)c4n3)(C1)C2 [4-((3-bromo-1-(quinolin-6-yl)-1H-pyrazolo [3,4-d]pyrimidin-6-yl)amino)-N-(2-(methyl-sulfonyl)ethyl)bicyclo[2.1.1]hexane-1-carboxamide]
5 |  | 0.025 to 0.2 µM | Cc1nnc(-c2ccc(-n3nc(Br)c4cnc(N[C@@H]5CC[C@@H](NC(=O)C(C)C)C5)nc43)cc2)s1 [N-[(1R,3R)-3-[[3-bromo-1-[4-(5-methyl-1,3,4-thiadiazol-2-yl)phenyl]pyrazolo [3,4-d]pyrimidin-6-yl]amino]cyclopentyl]-2-methyl-propanamide]
6 |  | < 0.025 µM | CNC(=O)[C@]1(C)CC[C@@H](Nc2ncc3c(Br)nn(-c4cc(Cl)cc(CCO)c4)c3n2)C1 [(1R,3R)-3-[[3-bromo-1-[3-chloro-5-(2-hydroxyethyl)phenyl]pyrazolo [3,4-d]pyrimidin-6-yl]amino]-N,1-dimethyl-cyclopentanecarboxamide]
7 |  | 0.2 to 0.5 µM | COCC(C)(C)NC(=O)[C@@H]1CC[C@@H](Nc2ncc3c(Br)nn(-c4ccc5ncccc5c4)c3n2)C1 [(1R,3R)-3-((3-bromo-1-(quinolin-6-yl)-1H-pyrazolo[3,4-d]pyrimidin-6-yl)amino)-N-(1-methoxy-2-methylpropan-2-yl)cyclopentane-1-carboxamide]
8 |  | 0.025 to 0.2 µM | CC1(C(=O)O)CN(C(=O)[C@@H]2CC[C@@H](Nc3ncc4c(Br)nn(-c5cc(F)c6ncccc6c5)c4n3)C2)C1 [1-((1R,3R)-3-((3-bromo-1-(8-fluoroquinolin-6-yl)-1H-pyrazolo[3,4-d]pyrimidin-6-yl)amino)cyclopentane-1-carbonyl)-3-methylazetidine-3-carboxylic acid]
9 |  | 0.025 to 0.2 µM | COCCNC(=O)[C@@H]1CC[C@@H](Nc2ncc3c(Br)nn(-c4ccc5ncc(F)cc5c4)c3n2)C1 [(1R,3R)-3-((3-bromo-1-(3-fluoroquinolin-6-yl)-1H-pyrazolo[3,4-d]pyrimidin-6-yl)amino)-N-(2-methoxyethyl)cyclopentane-1-carboxamide]
10 |  | 0.025 to 0.2 µM | CNC(=O)[C@]1(C)CC[C@@H](Nc2ncc3c(Br)nn(-c4cc(C(C)(C)O)c5ncccc5c4)c3n2)C1 [(1R,3R)-3-[[3-bromo-1-[8-(1-hydroxy-1-methyl-ethyl)-6-quinolyl]pyrazolo[3,4-d]pyrimidin-6-yl]amino]-N,1-dimethyl-cyclopentanecarboxamide]
11 |  | 0.025 to 0.2 µM | CNC(=O)[C@]1(C)CC[C@@H](Nc2ncc3c(Br)nn(-c4cc(CCO)c5nc(C)ccc5c4)c3n2)C1 [(1R,3R)-3-[[3-bromo-1-[8-(2-hydroxy-ethyl)-2-methyl-6-quinolyl]pyrazolo[3,4-d]pyrimidin-6-yl]amino]-N,1-dimethyl-cyclopentanecarboxamide]
12 |  | 0.025 to 0.2 µM | CNC(=O)[C@]1(C)CC[C@@H](Nc2ncc3c(Br)nn(-c4ccc(-c5nnc(C)s5)c(CCO)c4)c3n2)C1 [(1R,3R)-3-[[3-bromo-1-[3-(2-hydroxyethyl)-4-(5-methyl-1,3,4-thiadiazol-2-yl)phenyl]pyrazolo[3,4-d]pyrimidin-6-yl]amino]-N,1-dimethyl-cyclopentanecarboxamide]
13 |  | 0.025 to 0.2 µM | CNC(=O)C1(C)CC[C@@H](Nc2ncc3c(Br)nn(-c4ccc5nc(C)cc(Cl)c5c4)c3n2)C1 (stereo partly drawn) [(3R)-3-[[3-bromo-1-(4-chloro-2-methyl-6-quinolyl)pyrazolo[3,4-d]pyrimidin-6-yl]amino]-N,1-dimethyl-cyclopentane-carboxamide]
14 |  | 0.025 to 0.2 µM | COC1CC(Nc2ncc3c(Br)nn(-c4cc(F)c5ncccc5c4)c3n2)C1 (centres unmarked) [3-bromo-1-(8-fluoro-6-quinolyl)-N-(3-methoxycyclobutyl)pyrazolo[3,4-d]pyrimidin-6-amine]
15 |  | 0.025 to 0.2 µM | Cc1nnc(-c2ccc(-n3nc(Br)c4cnc(N[C@@H]5CC[C@@](C)(C(=O)N6CCNCC6)C5)nc43)cc2CCC#N)s1
16 |  | < 0.025 µM | CNC(=O)[C@]1(C)CC[C@@H](Nc2ncc3c(Br)nn(-c4cc(OCCOC)c5ncccc5c4)c3n2)C1 [(1R,3R)-3-[[3-bromo-1-[8-(2-methoxy-ethoxy)-6-quinolyl]pyrazolo[3,4-d]pyrimidin-6-yl]amino]-N,1-dimethyl-cyclopentanecarboxamide]
17 |  | 0.025 to 0.2 µM | CNC(=O)[C@]1(C)CC[C@@H](Nc2ncc3c(Br)nn(-c4ccc(-c5nnc(C)s5)c(CCS(C)(=O)=O)c4)c3n2)C1 [(1R,3R)-3-[[3-bromo-1-[3-(2-methyl-sulfonylethyl)-4-(5-methyl-1,3,4-thiadiazol-2-yl)phenyl]pyrazolo[3,4-d]pyrimidin-6-yl]amino]-N,1-dimethyl-cyclopentanecarboxamide]
18 |  | 0.025 to 0.2 µM | O=C(NCCO)[C@@H]1CC[C@@H](Nc2ncc3c(Br)nn(-c4ccc5ncccc5c4)c3n2)C1 [(1R,3R)-3-((3-bromo-1-(quinolin-6-yl)-1H-pyrazolo[3,4-d]pyrimidin-6-yl)amino)-N-(2-hydroxyethyl)cyclopentane-1-carboxamide]
19 |  | 0.025 to 0.2 µM | CNC(=O)[C@]1(C)CC[C@@H](Nc2ncc3c(Br)nn(-c4cc(F)c5nc(C)cc(Cl)c5c4)c3n2)C1 [(1R,3R)-3-[[3-bromo-1-(4-chloro-8-fluoro-2-methyl-6-quinolyl)pyrazolo[3,4-d]pyrimidin-6-yl]amino]-N,1-dimethyl-cyclopentanecarboxamide]
20 |  | 0.025 to 0.2 µM | CNC(=O)[C@]1(C)CC[C@@H](Nc2ncc3c(Br)nn(-c4cc(F)c5nc(C(C)(C)N)ccc5c4)c3n2)C1 [(1R,3R)-3-[[1-[2-(1-amino-1-methyl-ethyl)-8-fluoro-6-quinolyl]-3-bromo-pyrazolo[3,4-d]pyrimidin-6-yl]amino]-N,1-dimethyl-cyclopentanecarboxamide]
21 |  | 0.2 to 0.5 µM | O=C(NC1CCS(=O)(=O)CC1)[C@@H]1CC[C@@H](Nc2ncc3c(Br)nn(-c4ccc(-c5cccnc5)cc4)c3n2)C1
22 |  | 0.025 to 0.2 µM | C=CC(=O)NCCc1cc(-n2nc(Br)c3cnc(N[C@@H]4CC[C@@](C)(C(=O)NC)C4)nc32)cc2cccnc12 [(1R,3R)-3-[[3-bromo-1-[8-[2-(prop-2-enoylamino)ethyl]-6-quinolyl]pyrazolo [3,4-d]pyrimidin-6-yl]amino]-N,1-dimethyl-cyclopentanecarboxamide]

Row | SMILES | IC50 [1] | IC50 [2]
23 | CNC(=O)[C@]1(C)CC[C@@H](Nc2ncc3c(Br)nn(-c4cc(Cl)c(F)c(CNS(C)(=O)=O)c4)c3n2)C1 |  | 0.025 to 0.2 µM
